“Also recorded” adds a separate entry of the source.
Assays:
G9a = target: T1, G9a (Homo sapiens, UniProt Q96KQ7); test: MALDI-TOF MS methylation assay of H3K9 peptides with G9a; format: biochemical; details: peptide 100 µM, G9a 2 µM, SAM 500 µM, 1 h, 37 °C
T1 construct: His6 (N); made in house; host or cells: E. coli BL21 (DE3)pLysS-rosetta
T1 sequence (Q96KQ7 1-1210): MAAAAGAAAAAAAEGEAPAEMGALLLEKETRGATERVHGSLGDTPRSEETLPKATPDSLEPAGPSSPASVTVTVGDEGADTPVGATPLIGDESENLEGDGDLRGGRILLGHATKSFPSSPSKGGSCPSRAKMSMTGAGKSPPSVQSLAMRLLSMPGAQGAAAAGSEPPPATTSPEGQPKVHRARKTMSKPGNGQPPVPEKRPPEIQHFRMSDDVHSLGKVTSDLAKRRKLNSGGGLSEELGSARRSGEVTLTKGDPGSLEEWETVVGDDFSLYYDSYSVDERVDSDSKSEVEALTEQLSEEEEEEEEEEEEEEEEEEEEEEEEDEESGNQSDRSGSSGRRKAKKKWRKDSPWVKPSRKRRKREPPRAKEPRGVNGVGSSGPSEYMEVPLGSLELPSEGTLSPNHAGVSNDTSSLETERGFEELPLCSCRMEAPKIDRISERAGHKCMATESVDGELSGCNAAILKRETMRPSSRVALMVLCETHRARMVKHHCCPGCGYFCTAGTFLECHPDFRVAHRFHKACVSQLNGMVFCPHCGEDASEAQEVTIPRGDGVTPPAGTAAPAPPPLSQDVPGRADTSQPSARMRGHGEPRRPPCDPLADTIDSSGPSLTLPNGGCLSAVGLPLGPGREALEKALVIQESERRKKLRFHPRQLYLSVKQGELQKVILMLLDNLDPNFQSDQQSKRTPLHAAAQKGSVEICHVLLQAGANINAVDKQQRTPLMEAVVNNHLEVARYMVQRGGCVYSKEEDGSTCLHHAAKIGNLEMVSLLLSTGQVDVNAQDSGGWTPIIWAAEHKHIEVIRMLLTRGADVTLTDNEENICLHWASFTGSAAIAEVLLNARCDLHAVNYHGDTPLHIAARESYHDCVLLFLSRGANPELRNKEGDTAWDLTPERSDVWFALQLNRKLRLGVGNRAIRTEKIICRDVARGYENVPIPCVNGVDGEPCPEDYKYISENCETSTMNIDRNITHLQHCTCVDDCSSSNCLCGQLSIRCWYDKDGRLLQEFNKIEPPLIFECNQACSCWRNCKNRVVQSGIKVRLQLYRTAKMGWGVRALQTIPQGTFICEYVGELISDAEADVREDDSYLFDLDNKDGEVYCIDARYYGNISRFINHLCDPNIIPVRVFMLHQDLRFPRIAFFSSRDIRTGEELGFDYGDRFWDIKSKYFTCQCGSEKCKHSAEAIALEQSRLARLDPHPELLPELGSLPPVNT
Procedure: (§1) MALDI-MS methyltransferases activity experiments were performed using a Bruker instrument in the reflectron positive mode. For regular methyltransferase standard conditions experiment which carried out in 30 µL total volume, the mixture contains peptide (100 µM), SAM (200 µM), SETD8 or SETD7 (2 µM), in assay buffer 50 mM Tris at optimal pH 8.0. In case of G9a and GLP, similar conditions were used, except (500 µM) of SAM was added to the reaction mixture. Samples were incubated in an Eppendorf vial 1.5 mL using thermomixer for 1 h at 37 °C. A 5 µL aliquot of the solution was mixed with 5 µL of MeOH, after which 5 µL of this mixture was mixed with 5 µL of α-cyano-4-hydroxycinamic acid matrix (CHCA, 5 mg/mL in 125:125 µL acetonitrile/water). The spots were placed on a stainless steel MALDI plate (MS 96 target ground steel BC of Bruker, Germany). The mass corresponding to one monomethylation observed as +14 Da, dimethylation observed as +28 Da and trimethylation observed as +42 Da. The enzymatic activity was determined by taking the peak areas of each methylation state, including all isotopes and adducts, and was annotated using FlexAnalysis software (Bruker Daltonics, Germany). […] Methylated peptide substrates were repeated five times and the unmethylated substrates were triplicated. Sequences of the examined peptides are given in (Supplementary Table 1).

SETD8 = target: T2, SETD8 (Homo sapiens, UniProt Q9NQR1); test: MALDI-TOF MS methylation assay of H4K20 peptides with SETD8; format: biochemical; details: peptide 100 µM, SETD8 10 µM, SAM 1 mM, 1 h and 5 h, 37 °C, MALDI-MS
T2 construct: His6 (N); made in house; host or cells: E. coli BL21 (DE3)pLysS-rosetta
T2 sequence (Q9NQR1 1-393): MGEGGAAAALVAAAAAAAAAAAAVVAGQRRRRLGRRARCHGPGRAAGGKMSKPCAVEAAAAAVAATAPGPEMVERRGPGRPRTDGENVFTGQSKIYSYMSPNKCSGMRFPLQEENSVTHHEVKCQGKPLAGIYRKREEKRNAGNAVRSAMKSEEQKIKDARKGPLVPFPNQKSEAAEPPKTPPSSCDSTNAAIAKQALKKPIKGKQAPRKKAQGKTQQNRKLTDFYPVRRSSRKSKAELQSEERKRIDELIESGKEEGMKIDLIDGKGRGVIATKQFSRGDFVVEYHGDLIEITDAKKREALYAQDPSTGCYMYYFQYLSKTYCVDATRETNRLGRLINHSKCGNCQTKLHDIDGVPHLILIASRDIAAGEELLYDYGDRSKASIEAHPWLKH
Procedure: as §1, with “For regular methyltransferase standard conditions experiment which carried out in 30 µL total volume, the mixture contains peptide (100 µM), SAM (200 µM), SETD8 or SETD7 (2 µM), in assay buffer 50 mM Tris at optimal pH 8.0.” left out

GLP [1] = target: T3, GLP (Homo sapiens, UniProt Q9H9B1); test: MALDI-TOF MS methylation assay of H3K9 peptides with GLP; format: biochemical; details: peptide 100 µM, GLP 10 µM, SAM 1 mM, 5 h, 37 °C, MALDI-MS
T3 construct: His6 (N); made in house; host or cells: E. coli BL21 (DE3)pLysS-rosetta
T3 sequence (Q9H9B1 1-1298): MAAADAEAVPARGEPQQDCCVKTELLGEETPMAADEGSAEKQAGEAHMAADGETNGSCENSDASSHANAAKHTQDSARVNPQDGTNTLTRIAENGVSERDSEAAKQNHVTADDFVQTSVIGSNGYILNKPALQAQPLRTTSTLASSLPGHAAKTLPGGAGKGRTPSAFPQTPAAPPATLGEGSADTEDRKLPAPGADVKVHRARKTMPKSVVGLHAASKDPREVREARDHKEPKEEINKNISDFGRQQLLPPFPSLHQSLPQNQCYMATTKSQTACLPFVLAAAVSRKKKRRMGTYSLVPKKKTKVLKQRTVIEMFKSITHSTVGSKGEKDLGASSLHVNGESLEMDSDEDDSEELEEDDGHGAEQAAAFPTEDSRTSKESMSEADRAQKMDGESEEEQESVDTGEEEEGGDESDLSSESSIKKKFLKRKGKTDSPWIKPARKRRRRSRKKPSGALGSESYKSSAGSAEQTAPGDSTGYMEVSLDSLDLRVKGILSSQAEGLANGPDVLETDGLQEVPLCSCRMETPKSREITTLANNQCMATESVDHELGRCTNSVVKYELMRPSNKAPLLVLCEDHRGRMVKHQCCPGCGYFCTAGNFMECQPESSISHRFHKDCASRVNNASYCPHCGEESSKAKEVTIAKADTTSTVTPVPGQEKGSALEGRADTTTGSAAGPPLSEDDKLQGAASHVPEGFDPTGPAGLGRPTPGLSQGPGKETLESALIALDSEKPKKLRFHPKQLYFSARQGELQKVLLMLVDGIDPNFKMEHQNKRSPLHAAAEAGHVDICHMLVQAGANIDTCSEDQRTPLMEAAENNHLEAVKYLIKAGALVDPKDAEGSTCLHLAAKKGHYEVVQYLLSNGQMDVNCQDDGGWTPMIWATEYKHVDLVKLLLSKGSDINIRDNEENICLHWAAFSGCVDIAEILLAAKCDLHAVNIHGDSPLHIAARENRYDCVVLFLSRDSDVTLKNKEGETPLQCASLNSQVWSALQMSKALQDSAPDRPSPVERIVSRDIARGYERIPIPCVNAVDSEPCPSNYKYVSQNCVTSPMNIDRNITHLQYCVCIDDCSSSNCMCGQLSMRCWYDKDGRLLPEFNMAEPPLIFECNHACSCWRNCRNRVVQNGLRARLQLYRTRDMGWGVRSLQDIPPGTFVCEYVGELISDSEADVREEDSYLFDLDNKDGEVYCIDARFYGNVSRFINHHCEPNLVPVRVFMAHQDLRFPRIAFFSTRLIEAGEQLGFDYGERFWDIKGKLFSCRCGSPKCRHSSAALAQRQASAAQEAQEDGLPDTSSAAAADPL
Procedure: as §1, with “Samples were incubated in an Eppendorf vial 1.5 mL using thermomixer for 1 h at 37 °C.” left out

GLP [2] = target: T3, GLP; test: NMR assay of GLP-catalyzed methylation of H3K9 peptides; format: biochemical; details: peptide 400 µM, GLP 8 µM, SAM 2 mM, 50 mM Tris-d11.HCl pD 8.0, 1 h, 37 °C
SETD7 = test: MALDI-TOF MS methylation assay of H3K4 peptides with SETD7; format: biochemical, human; details: peptide 100 µM, SETD7 2 µM, SAM 200 µM, 1 h, 37 °C
Procedure: as §1

| Substance | G9a-catalyzed methylation, result in words (G9a) | SETD8-catalyzed methylation, result in words, increased SETD8/SAM and prolonged incubation (SETD8) | SETD7-catalyzed methylation, result in words (SETD7) | further results |
| --- | --- | --- | --- | --- |
| ARTKQTARKSTGGK [H3 1-14K9, reference compound] | trimethylation | – | – | – |
| GGAKRHR(Ap20)VLRDNIQ [H4AP20, H4K20 peptide bearing pyridylalanine at position 20] | – | lack of methylation | – | – |
| GGAKRHR(F3a20)VLRDNIQ [H4F3a20, H4K20 peptide bearing meta-aminophenylalanine at position 20] | – | lack of methylation | – | – |
| ARTKQTAR(F4a9)STGGKA [H3F4a9] | lack of methylation | – | – | GLP-catalyzed methylation, result in words, increased GLP/SAM (GLP [1]): lack of methylation; GLP-catalyzed methylation by 1H NMR / 1H-13C HSQC, result in words (GLP [2]): not methylated |
| GGAKRHR(F4a20)VLRDNIQ [H4F4a20, H4K20 peptide bearing para-aminophenylalanine at position 20] | – | lack of methylation | – | – |
| ARTKQTAR(Ap9)STGGKA [H3AP9] | lack of methylation | – | – | GLP-catalyzed methylation, result in words, increased GLP/SAM (GLP [1]): lack of methylation; GLP-catalyzed methylation by 1H NMR / 1H-13C HSQC, result in words (GLP [2]): not methylated |
| ART(F3a4)QTARKSTGGKA [H3F3a4, H3K4 peptide bearing meta-aminophenylalanine at position 4] | – | – | lack of methylation | – |
| ARTKQTAR(Y9)STGGKA (ARTKQTARYSTGGKA) [H3Y9] | lack of methylation | – | – | GLP-catalyzed methylation, result in words, increased GLP/SAM (GLP [1]): lack of methylation; GLP-catalyzed methylation by 1H NMR / 1H-13C HSQC, result in words (GLP [2]): not methylated |
| GGAKRHR(Y20)VLRDNIQ [H4Y20, H4K20 peptide bearing tyrosine at position 20] | – | lack of methylation | – | – |
| ARTK^4QTARKSTGGKA [H3K4, reference compound] | – | – | formation of monomethylated H3K4; also recorded: monomethylation | – |
| ART(Y4)QTARKSTGGKA [H3Y4, H3K4 peptide bearing tyrosine at position 4] | – | – | lack of methylation | – |
| ART(Kba4)QTARKSTGGKA [H3Kba4, H3K4 peptide bearing benzylamine lysine analog at position 4] | – | – | lack of methylation | – |
| ART(Ap4)QTARKSTGGKA [H3AP4, H3K4 peptide bearing pyridylalanine at position 4] | – | – | lack of methylation | – |

Reference: PMC7048932, “Examining sterically demanding lysine analogs for histone lysine methyltransferase catalysis” (Scientific Reports, 2020)
